Test results published in patent publication US20240239752A1, “BICYCLIC HETEROAROMATIC INHIBITORS OF KLK5” (BioCryst Pharmaceuticals, Inc., priority 2021, published 2024).

Target: T1, recombinant human KLK5 (Homo sapiens, UniProt Q9Y337)
T1 construct: purchased Novoprotein or R&D Systems C415 or 1108-SE
T1 sequence (Q9Y337 23-293): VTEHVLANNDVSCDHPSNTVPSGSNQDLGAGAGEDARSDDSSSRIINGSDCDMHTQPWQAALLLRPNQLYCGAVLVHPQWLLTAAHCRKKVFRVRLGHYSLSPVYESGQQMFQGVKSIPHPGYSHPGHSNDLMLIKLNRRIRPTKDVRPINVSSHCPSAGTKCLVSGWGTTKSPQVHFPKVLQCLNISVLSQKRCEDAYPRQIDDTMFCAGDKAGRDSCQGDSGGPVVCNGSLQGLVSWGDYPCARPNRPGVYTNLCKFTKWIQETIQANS
Test: Kallikrein (KLK) 5 enzymatic assay (Boc-VPR-AMC fluorogenic substrate)
Format: biochemical
Settings: recombinant human KLK5 0.1 μg/well, Boc-VPR-AMC 100 μM, pH 7.5, room temperature, 1% DMSO; tested a minimum of three times
Summary of the method: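 Recombinant human KLK5 (0.1 μg/well) was preincubated with compound at room temperature in 0.1 M NaH2PO4, pH 7.5, 1% DMSO, then started with 100 μM Boc-VPR-AMC. The rate was followed at 380/460 nm, and IC50 came from percent inhibition relative to enzyme alone, with at least three runs.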

| SMILES | IC50 [nM] |
| --- | --- |
| COc1ccc(CC(=O)O)c(OCc2nn(C)c3ccc(-c4cccc5c(N)nccc45)cc23)c1 [Compound 72b, 2-(2-((5-(1-aminoisoquinolin-5-yl)-1-methyl-1H-indazol-3-yl)methoxy)-4-methoxyphenyl)acetic acid] | < 1000 |
| CC(C)OC(=O)N1CC[C@H](n2nc(COc3ccccc3CC(=O)O)c3cc(-c4ccc5ccnc(N)c5c4)ccc32)C1 [Compound 358c, (S)-2-(2-((5-(1-aminoisoquinolin-7-yl)-1-(1-(isopropoxycarbonyl)pyrrolidin-3-yl)-1H-indazol-3-yl)methoxy)phenyl)acetic acid] | < 1000 |
| CC(C)n1nc(COc2ccccc2CC(=O)O)c2cc(-c3ccc4cc(N)ncc4c3)ccc21 [Compound 34c, 2-(2-((5-(3-aminoisoquinolin-7-yl)-1-isopropyl-1H-indazol-3-yl)methoxy)phenyl)acetic acid] | > 10000 |
| CC(C)n1nc(COc2ccccc2CC(=O)O)c2cc(-c3ccc4ncnc(N)c4c3)ccc21 [Compound 39c, 2-(2-((5-(4-aminoquinazolin-6-yl)-1-isopropyl-1H-indazol-3-yl)methoxy)phenyl)acetic acid] | > 10000 |
| Cc1cccc(CC(=O)O)c1OCc1nn(C2CCC2)c2ccc(-c3cccc4c(N)nccc34)cc12 [Compound 160b, 2-(2-((5-(1-aminoisoquinolin-5-yl)-1-cyclobutyl-1H-indazol-3-yl)methoxy)-3-methylphenyl)acetic acid] | 1000 to 10000 |
| Cc1cccc(OC2CC3(CCCCC3)c3ccc(-c4cccc5c(N)nccc45)cc32)c1CC(=O)O (stereo not shown) [Compound 377c, 2-(2-((5′-(1-aminoisoquinolin-5-yl)-2′,3′-dihydrospiro[cyclohexane-1,1′-inden]-3′-yl)oxy)-6-methylphenyl)acetic acid] | < 1000 |
| CC(C)(C)OC(=O)N1CC(n2nc3ccc(-c4cccc5c(N)nccc45)cc3c2COc2ccccc2CC(=O)O)C1 [Compound 125b, 2-(2-((5-(1-aminoisoquinolin-5-yl)-2-(1-(tert-butoxycarbonyl)azetidin-3-yl)-2H-indazol-3-yl)methoxy)phenyl)acetic acid] | < 1000 |
| Nc1nccc2ccc(-c3ccc4c(c3)c(COc3ccccc3CC(=O)O)nn4CC3CCOC3)cc12 (stereo not shown) [Compound 89b, 2-(2-((5-(1-aminoisoquinolin-7-yl)-1-((tetrahydrofuran-3-yl)methyl)-1H-indazol-3-yl)methoxy)phenyl)acetic acid] | < 1000 |
| Nc1nccc2c(-c3ccc4nn(C5CC(N)C5)c(COc5ccccc5CC(=O)O)c4c3)cccc12 (stereo not shown) [Compound 136b, 2-(2-((2-(3-aminocyclobutyl)-5-(1-aminoisoquinolin-5-yl)-2H-indazol-3-yl)methoxy)phenyl)acetic acid] | 1000 to 10000 |
| CCOc1c(C(=N)N)cccc1-c1ccc2c(c1)c(COc1ccccc1CC(=O)O)nn2C(C)C [Compound 273e, 2-(2-((5-(3-carbamimidoyl-2-ethoxyphenyl)-1-isopropyl-1H-indazol-3-yl)methoxy)phenyl)acetic acid] | < 1000 |
| Cc1ccc(CC(=O)O)c(OCc2nn(C(C)C)c3ccc(-c4ccc5ccnc(N)c5c4)cc23)c1 [Compound 62c, 2-(2-((5-(1-aminoisoquinolin-7-yl)-1-isopropyl-1H-indazol-3-yl)methoxy)-4-methylphenyl)acetic acid] | < 1000 |
| CCN1CCC2(CC1)C[C@@H](Oc1ccccc1CC(=O)O)c1cc(-c3cccc4c(N)nccc34)ccc12 [Compound 418c, (R)-2-(2-((5-(1-aminoisoquinolin-5-yl)-1′-ethyl-2,3-dihydrospiro[indene-1,4′-piperidin]-3-yl)oxy)phenyl)acetic acid] | < 1000 |
| COc1c(-c2ccc3c(c2)c(COc2ccccc2CC(=O)O)nn3C(C)C)ccnc1CN [Compound 326d, 2-(2-((5-(2-(aminomethyl)-3-methoxypyridin-4-yl)-1-isopropyl-1H-indazol-3-yl)methoxy)phenyl)acetic acid] | < 1000 |
| Nc1nccc2ccc(-c3ccc4c(c3)C(Oc3ccccc3CC(=O)O)c3ccccc3-4)cc12 (stereo not shown) [Compound 209e, 2-(2-((2-(1-aminoisoquinolin-7-yl)-9H-fluoren-9-yl)oxy)phenyl)acetic acid] | < 1000 |
| Nc1nccc2c(-c3ccc4c(c3)[C@H](Oc3cc(F)ccc3CC(=O)O)CC4)cccc12 [Compound 422b, (R)-2-(2-((6-(1-aminoisoquinolin-5-yl)-2,3-dihydro-1H-inden-1-yl)oxy)-4-fluorophenyl)acetic acid] | < 1000 |
| Nc1nccc2c(-c3ccc4c(c3)c(COc3ccccc3CC(=O)O)nn4CC3CCOC3)cccc12 (stereo not shown) [Compound 88h, 2-(2-((5-(1-aminoisoquinolin-5-yl)-1-((tetrahydrofuran-3-yl)methyl)-1H-indazol-3-yl)methoxy)phenyl)acetic acid] | < 1000 |

| SMILES | IC50 [nM] |
| --- | --- |
| Nc1nccc2ccc(-c3ccc4c(c3)C(Oc3ccccc3CC(=O)O)CC4)cc12 (stereo not shown) [Compound 199d, 2-(2-((6-(1-aminoisoquinolin-7-yl)-2,3-dihydro-1H-inden-1-yl)oxy)phenyl)acetic acid] | < 1000 |
| CC(C(=O)O)c1ccccc1OCc1nn(C2CCOC2)c2ccc(-c3cccc4c(N)nccc34)cc12 (stereo not shown) [Compound 241f, 2-(2-((5-(1-aminoisoquinolin-5-yl)-1-(tetrahydrofuran-3-yl)-1H-indazol-3-yl)methoxy)phenyl)propanoic acid] | < 1000 |
| COCCN1CC(n2nc(COc3ccccc3CC(=O)O)c3cc(-c4ccc5ccnc(N)c5c4)ccc32)C1 [Compound 145b, 2-(2-((5-(1-aminoisoquinolin-7-yl)-1-(1-(2-methoxyethyl)azetidin-3-yl)-1H-indazol-3-yl)methoxy)phenyl)acetic acid] | < 1000 |
| COC(=O)N1CCC2(CC1)CC(Oc1cc(C)ccc1CC(=O)O)c1cc(-c3cccc4c(N)nccc34)ccc12 (stereo not shown) [Compound 413b, 2-(2-((5-(1-aminoisoquinolin-5-yl)-1′-(methoxycarbonyl)-2,3-dihydrospiro[indene-1,4′-piperidin]-3-yl)oxy)-4-methylphenyl)acetic acid] | < 1000 |
| CCOC(=O)N1CC[C@H](n2nc(COc3cccc(C4CC4)c3CC(=O)O)c3cc(-c4ccc5ccnc(N)c5c4)ccc32)C1 [Compound 356e, (S)-2-(2-((5-(1-aminoisoquinolin-7-yl)-1-(1-(ethoxycarbonyl)pyrrolidin-3-yl)-1H-indazol-3-yl)methoxy)-6-cyclopropylphenyl)acetic acid] | < 1000 |
| Nc1nccc2c(-c3ccc4c(c3)c(COc3cccc(C5CC5)c3CC(=O)O)nn4C3CCOC3)cccc12 (stereo not shown) [Compound 291b, 2-(2-((5-(1-aminoisoquinolin-5-yl)-1-(tetrahydrofuran-3-yl)-1H-indazol-3-yl)methoxy)-6-cyclopropylphenyl)acetic acid] | < 1000 |
| COc1ccc(C(=N)N)cc1-c1ccc2c(c1)c(COc1ccccc1CC(=O)O)nn2C(C)C [Compound 83e, 2-(2-((5-(5-carbamimidoyl-2-methoxyphenyl)-1-isopropyl-1H-indazol-3-yl)methoxy)phenyl)acetic acid] | 1000 to 10000 |
| Nc1nccc2c(-c3cnc4c(c3)c(COc3ccccc3CC(=O)O)cn4C3CCOC3)cccc12 (stereo not shown) [Compound 279g, 2-(2-((5-(1-aminoisoquinolin-5-yl)-1-(tetrahydrofuran-3-yl)-1H-pyrrolo[2,3-b]pyridin-3-yl)methoxy)phenyl)acetic acid] | < 1000 |
| COC(=O)N1CCC2(CC1)CC(Oc1cccc(C)c1CC(=O)O)c1cc(-c3ccc4ccnc(N)c4c3)ccc12 (stereo not shown) [Compound 381e, 2-(2-((5-(1-aminoisoquinolin-7-yl)-1′-(methoxycarbonyl)-2,3-dihydrospiro[indene-1,4′-piperidin]-3-yl)oxy)-6-methylphenyl)acetic acid] | < 1000 |
| Cc1cccc(OCc2nn(C3CCOC3)c3ccc(-c4ccc5ccnc(N)c5c4)cc23)c1CC(=O)O (stereo not shown) [Compound 248b, 2-(2-((5-(1-aminoisoquinolin-7-yl)-1-(tetrahydrofuran-3-yl)-1H-indazol-3-yl)methoxy)-6-methylphenyl)acetic acid] | < 1000 |
| CC(C)n1nc(COc2ccccc2CC(=O)O)c2cc(-c3ccc(C(=N)N)c(O)c3)ccc21 [Compound 29c, 2-(2-((5-(4-carbamimidoyl-3-hydroxyphenyl)-1-isopropyl-1H-indazol-3-yl)methoxy)phenyl)acetic acid] | > 10000 |
| Nc1nccc2ccc(-c3ccc4c(c3)[C@H](Oc3ccccc3CC(=O)O)CC43CCN(CC(=O)O)CC3)cc12 [Compound 414c, (R)-2-(2-((5-(1-aminoisoquinolin-7-yl)-1′-(carboxymethyl)-2,3-dihydrospiro[indene-1,4′-piperidin]-3-yl)oxy)phenyl)acetic acid] | < 1000 |
| COC(=O)N1CCC2(CC1)CC(Oc1cc(F)ccc1CC(=O)O)c1cc(-c3cccc4c(N)nccc34)ccc12 (stereo not shown) [Compound 409b, 2-(2-((5-(1-aminoisoquinolin-5-yl)-1′-(methoxycarbonyl)-2,3-dihydrospiro[indene-1,4′-piperidin]-3-yl)oxy)-4-fluorophenyl)acetic acid] | < 1000 |
| COc1ccc(OCc2c3cc(-c4ccc5ccnc(N)c5c4)ccc3nn2C2CCC2)c(CC(=O)O)c1 [Compound 157d, 2-(2-((5-(1-aminoisoquinolin-7-yl)-2-cyclobutyl-2H-indazol-3-yl)methoxy)-5-methoxyphenyl)acetic acid] | 1000 to 10000 |
| COc1ccc(CC(=O)O)c(OCc2c3cc(-c4ccc5ccnc(N)c5c4)ccc3nn2C2CCC2)c1 [Compound 20b, 2-(2-((5-(1-aminoisoquinolin-7-yl)-2-cyclobutyl-2H-indazol-3-yl)methoxy)-4-methoxyphenyl)acetic acid] | 1000 to 10000 |
